Experimental data: article PMC5813806 (ACS chemical neuroscience, 2016)
“And” between values parts separate entries of the source, which are not always exact repeats. Identical values can stand only once. Like-named read-outs stand apart in the source and are kept apart here. Blank lines part the entries; values can stand above or below the molecule they belong to.

What was measured:
[1] = biological target: T1, human D2 receptor (CHO-D2R) (Homo sapiens, UniProt P14416); experiment: ERK1/2 phosphorylation; assay type: cell-based; conditions: CHO-D2R cells, 1 μM, 5 min
T1 sequence (P14416 whole entry): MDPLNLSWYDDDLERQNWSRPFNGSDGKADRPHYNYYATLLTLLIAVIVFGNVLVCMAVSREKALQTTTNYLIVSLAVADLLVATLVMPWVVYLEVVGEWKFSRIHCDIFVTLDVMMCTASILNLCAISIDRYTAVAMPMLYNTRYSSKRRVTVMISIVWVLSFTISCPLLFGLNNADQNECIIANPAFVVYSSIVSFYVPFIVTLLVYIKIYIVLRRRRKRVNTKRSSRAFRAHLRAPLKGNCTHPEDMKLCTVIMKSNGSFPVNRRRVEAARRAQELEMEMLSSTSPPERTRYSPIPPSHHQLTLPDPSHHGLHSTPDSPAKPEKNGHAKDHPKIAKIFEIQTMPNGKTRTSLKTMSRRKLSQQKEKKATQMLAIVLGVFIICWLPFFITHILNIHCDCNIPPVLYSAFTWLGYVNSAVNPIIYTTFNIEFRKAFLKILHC

[2] = biological target: T1, human D2 receptor (CHO-D2R); experiment: [3H]methylspiperone binding to CHO-D2R membranes; conditions: 10 μM; for Affinity to D2R, high-affinity state (result in words): CHO-D2R membranes pretreated with GDP and Na+, Mg2+ buffer; for Binding to D2R in binding screening (result in words): CHO-D2R, regular binding buffer
[3] = biological target: T2, human D3 receptor (CHO-D3R) (Homo sapiens, UniProt P35462); experiment: ERK1/2 phosphorylation; assay type: cell-based; conditions: for ERK1/2 phosphorylation, functional screening (result in words): CHO-D3R cells, 5 min
T2 sequence (P35462 whole entry): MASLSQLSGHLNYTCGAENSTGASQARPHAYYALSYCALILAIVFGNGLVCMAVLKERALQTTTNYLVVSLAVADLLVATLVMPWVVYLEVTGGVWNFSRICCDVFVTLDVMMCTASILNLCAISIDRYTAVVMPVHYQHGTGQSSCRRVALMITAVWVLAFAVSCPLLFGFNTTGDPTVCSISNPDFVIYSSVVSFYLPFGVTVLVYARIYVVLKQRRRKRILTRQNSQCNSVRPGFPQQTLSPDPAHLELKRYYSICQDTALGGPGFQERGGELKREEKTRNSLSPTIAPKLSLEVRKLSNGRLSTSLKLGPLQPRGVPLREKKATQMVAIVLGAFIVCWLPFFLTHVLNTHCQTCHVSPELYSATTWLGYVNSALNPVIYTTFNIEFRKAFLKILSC

[4] = biological target: T2, human D3 receptor (CHO-D3R); experiment: Agonist-induced [35S]GTPγS binding to CHO-D3R membranes; assay type: biochemical
[5] = biological target: T1, human D2 receptor (CHO-D2R); experiment: Agonist-induced [35S]GTPγS binding to CHO-D2R membranes; assay type: biochemical
hD3R = hD3R (Homo sapiens, UniProt P35462); experiment: PathHunter eXpress U2OS D3R β-arrestin-2 recruitment assay; assay type: cell-based
Sequence of hD3R (P35462 whole entry): as above

[6] = biological target: human D3 receptor (HEK-D3R) (Homo sapiens, UniProt P35462); assay type: cell-based; conditions: 1 μM 30 min pretreatment, washes, 1 μM 2 min
Sequence of human D3 receptor (HEK-D3R) (P35462 whole entry): as above

[7] = biological target: T2, human D3 receptor (CHO-D3R); experiment: [3H]methylspiperone binding to CHO-D3R membranes; conditions: for Ki: [3H]methylspiperone competition, two-site analysis
[8] = biological target: T3, human D4 receptor (HEK-D4R) (Homo sapiens, UniProt P21917); experiment: [3H]methylspiperone binding screening at HEK-D4R; conditions: 10 μM
T3 sequence (P21917 1-419): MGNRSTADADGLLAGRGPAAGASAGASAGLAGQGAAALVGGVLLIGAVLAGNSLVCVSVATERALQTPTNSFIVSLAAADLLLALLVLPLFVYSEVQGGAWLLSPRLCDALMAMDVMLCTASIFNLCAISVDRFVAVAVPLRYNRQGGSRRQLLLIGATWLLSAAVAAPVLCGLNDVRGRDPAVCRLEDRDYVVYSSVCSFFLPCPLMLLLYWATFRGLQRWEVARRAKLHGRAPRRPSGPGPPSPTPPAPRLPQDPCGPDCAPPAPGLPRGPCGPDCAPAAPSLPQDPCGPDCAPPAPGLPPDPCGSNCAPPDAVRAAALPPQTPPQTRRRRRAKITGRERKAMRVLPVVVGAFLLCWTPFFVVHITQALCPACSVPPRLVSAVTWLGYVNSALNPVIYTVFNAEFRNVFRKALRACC

Binding to D2R in binding screening (result in words) [2]: high binding affinity
Structure (SMILES): NCCc1ccc(O)c(O)c1 [DA, dopamine]
ERK1/2 phosphorylation, functional screening (result in words) [1]: significantly evoked ERK1/2 phosphorylation | Affinity to D2R, high-affinity state (result in words) [2]: higher affinity for D2R than in the regular binding buffer

Structure (SMILES): CCCN1CCO[C@@H]2c3cc(O)ccc3OC[C@H]21 [PD128907]
ERK1/2 phosphorylation Emax ([3]; CHO-D3R cells treated 5 min at 37 °C, DA = 100): 100 | ERK1/2 phosphorylation, functional screening (result in words) ([3]; 1 μM): significantly activated ERK1/2 phosphorylation | EC50 ([3]; read-out: ERK1/2 phosphorylation EC50, CHO-D3R cells treated 5 min at 37 °C): 7.1 ± 0.5 nM | ERK1/2 phosphorylation, functional screening (result in words) [1]: significantly evoked ERK1/2 phosphorylation | [35S]GTPγS binding Emax ([4]; DA effect defined as 100%): 95.1 ± 2.1 % of DA | EC50 ([4]; read-out: [35S]GTPγS binding EC50): 1.19 nM and 1.2 nM | [35S]GTPγS binding Emax ([5]; D2R, DA effect defined as 100%): 92.8 ± 1.7 % of DA | EC50 ([5]; read-out: [35S]GTPγS binding EC50, D2R (CHO-D2R membranes)): 103 ± 29.6 nM | β-arrestin recruitment Emax (hD3R; perhaps underestimates from incomplete curves): 100 % of PD128907 | EC50 (hD3R; read-out: β-arrestin recruitment EC50, 90 min stimulation): 5.5 ± 0.18 nM | Desensitization of D3R/ERK1/2 signaling on repeated treatment [6]: significant reduction of ERK1/2 phosphorylation signal | Binding to D3R in binding screening (result in words) ([7]; CHO-D3R, 10 μM): high binding affinity | Ki ([7]; read-out: Ki-H (high-affinity Ki) to CHO-hD3): 3.7 ± 1.6 nM | Ki ([7]; read-out: Ki-L (low-affinity Ki) to CHO-hD3): 14.6 ± 3.6 nM | Binding to D4R in binding screening (result in words) [8]: high binding affinity | Affinity to D2R, high-affinity state (result in words) [2]: higher affinity for D2R than in the regular binding buffer | Binding to D2R in binding screening (result in words) [2]: high binding affinity | IC50 ([2]; read-out: IC50 for D2R binding, low-affinity state, CHO-D2R in Na+-GTPγS binding buffer): > 10000 nM

ERK1/2 phosphorylation, functional screening (result in words) ([3]; 1 μM): reduction in functional effect | Selectivity to D3R in ERK1/2 activation ([3]; CHO-D3R versus CHO-D2R cells, 1 μM): maintained selectivity to D3R
Structure (SMILES): CC(N)CCc1ccco1 (centres unmarked) [SK603, 4-(fluran-2-yl)butan-2-amine]
